The values below come from publication PMC11020896, “Development of a ^99mTc-labeled tetrazine for pretargeted SPECT imaging using an alendronic acid-based bone targeting model” (PLOS ONE, 2024).

Data set [1] relates to Healthy Balb/c female mice. As to the kind of experiment: SPECT/CT quantitative image analysis of 99mTc-labeled Tzs (pretargeted with Aln-TCO, saline control, or directly targeted). It counts as in vivo. The following applies: for blood pool activity: directly targeted Aln-TCO. How it is done:
(§1) The study was conducted in compliance with the guidelines set by the Canadian Council on Animal Care (CCAC) and approved by the Animal Care Committee (ACC) at the University of British Columbia (A20-0132). Healthy Balb/c female mice (~25 g) were anesthetized using isoflurane delivered via a precision vaporizer (5% in oxygen for induction, between 1.5 and 2.5% in oxygen for maintenance) and received 100 μL of a 2 mg/kg solution of Aln-TCO in saline (pretargeted groups), or 100 μL saline (control groups) via intravenous injection. After 1 h, mice were anesthetized again and received another i.v. injection containing 100 μL of ^99mTc labeled Tzs in saline, with an average activity of 17.58 MBq, as well as a subcutaneous injection of Lactated Ringer’s solution (0.5 mL) to ensure hydration before each imaging scan. After the injection, a VECTor/CT multimodal preclinical scanner (MILabs, The Netherlands) equipped with a HEUHR-1 mm mouse pinhole collimator was used to obtain static whole-body images. The first scans were obtained with a single frame lasting 25 minutes, followed by scans at 2- and 6-hours post-injection, each with a single frame lasting 40 and 50 minutes, respectively.
Throughout the scanning process, mice were maintained under isoflurane anesthesia and kept warm with a heating pad to ensure constant body temperature. Following each SPECT acquisition, a whole-body CT scan was performed to obtain anatomical information and the two images were registered. The ^99mTc photopeak window was centered at 140 keV with a 25% energy window width. SPECT image reconstructions were carried out using a pixel-ordered subset expectation maximization (POSEM) algorithm with 16 subsets, 6 iterations, and an isotropic 0.4 mm voxel grid to enable quantitative analysis. The images were decay corrected, and after CT registration, attenuation correction was applied. For visual representation, the reconstructed volumes of SPECT scans were post-filtered with a 3D Gaussian filter. CT scans were conducted using a tube setting of 55 kV and 615 μA, and 2 frames of 180 projections over 360 degrees were captured in step and shoot rotation mode. The acquired projection data was reconstructed using SkyScan NRecon software to generate a 3D CT image on 0.169 mm^3 voxel size. Volumes of interest (VOIs), in the left ventricle of the heart (blood pool), liver (n = 3), bladder, kidney (n = 2), shoulder and knee joint (n = 2, respectively) were manually defined using AMIDE [49] (v.1.0.5) to determine the time activity pattern per target organ. The average organ activity per volume was obtained from the SPECT images and the %ID/g of tissue were extracted from each organ. To relate the scanner units (counts/pixel) to radioactivity concentration (MBq/mL), a calibration factor was determined scanning a source with a known concentration of ^99mTc. Following the last time imaging time point (6 h, except mice injected with ^99mTc-3, which were sacrificed 24 h p.i.), mice were sacrificed via CO2 asphyxiation under isoflurane anesthesia. Blood was recovered via cardiac puncture and organs of interest were dissected out, cleaned and weighed. The bone uptake of the shoulder was measured by measuring the activity of scapula and humerus, cut below the elbow joint, while knee uptake was measured in the femur, cut below the knee joint. […] The activity was quantified on a calibrated Cobra II Autogamma counter (Packard Instruments, USA) and decay corrected to the time of injection. […]

Data set [2] concerns Healthy Balb/c female mice. The data set can be described thus: Post-mortem (ex vivo) biodistribution after last imaging time point, gamma counter. It counts as in vivo. How it is done:
as §1
Throughout the scanning process, mice were maintained under isoflurane anesthesia and kept warm with a heating pad to ensure constant body temperature. Following each SPECT acquisition, a whole-body CT scan was performed to obtain anatomical information and the two images were registered. The ^99mTc photopeak window was centered at 140 keV with a 25% energy window width. SPECT image reconstructions were carried out using a pixel-ordered subset expectation maximization (POSEM) algorithm with 16 subsets, 6 iterations, and an isotropic 0.4 mm voxel grid to enable quantitative analysis. The images were decay corrected, and after CT registration, attenuation correction was applied. For visual representation, the reconstructed volumes of SPECT scans were post-filtered with a 3D Gaussian filter. CT scans were conducted using a tube setting of 55 kV and 615 μA, and 2 frames of 180 projections over 360 degrees were captured in step and shoot rotation mode. The acquired projection data was reconstructed using SkyScan NRecon software to generate a 3D CT image on 0.169 mm^3 voxel size. Volumes of interest (VOIs), in the left ventricle of the heart (blood pool), liver (n = 3), bladder, kidney (n = 2), shoulder and knee joint (n = 2, respectively) were manually defined using AMIDE [49] (v.1.0.5) to determine the time activity pattern per target organ. The average organ activity per volume was obtained from the SPECT images and the %ID/g of tissue were extracted from each organ. To relate the scanner units (counts/pixel) to radioactivity concentration (MBq/mL), a calibration factor was determined scanning a source with a known concentration of ^99mTc. Following the last time imaging time point (6 h, except mice injected with ^99mTc-3, which were sacrificed 24 h p.i.), mice were sacrificed via CO2 asphyxiation under isoflurane anesthesia. Blood was recovered via cardiac puncture and organs of interest were dissected out, cleaned and weighed. The bone uptake of the shoulder was measured by measuring the activity of scapula and humerus, cut below the elbow joint, while knee uptake was measured in the femur, cut below the knee joint. Bone samples were thoroughly cleaned from muscle and connective tissue. The activity was quantified on a calibrated Cobra II Autogamma counter (Packard Instruments, USA) and decay corrected to the time of injection.

Where [3] appears, read: directly targeted Aln-TCO, biodistribution 6 h p.i., ratio of %ID/g.
Setting [4] is: directly targeted Aln-TCO, sacrificed 6 h p.i.

Molecules are shown by their SMILES.

On to `O=C(O)CN(CCNC(=O)CCCC(=O)Nc1ccc(-c2nnc(-c3ccccn3)nn2)nc1)Cc1cccc(C(=O)O)n1` (99mTc complex, metal not drawn) [Tz 1, 6-(((carboxymethyl)(2-(5-oxo-5-((6-(6-(pyridin-2-yl)-1,2,4,5-tetrazin-3-yl)pyridin-3-yl)amino)pentanamido)ethyl)amino)methyl)picolinic acid], for which, in data set [1] (6 h p.i.), the “difference in blood pool activity, 1* vs 1a” value is listed as 15 fold. In addition, in data set [1] (image analysis, 0 h), the blood pool activity turned out to be 27.35 ± 3.79 %ID/g. In addition, in data set [1] (image analysis, 0-6 h, directly targeted), the “liver activity over time” value is on record as “increase over time”. Moreover, the blood pool activity in data set [1] (image analysis, 6 h p.i.) worked out at 3.66 ± 0.65 %ID/g. Besides, in data set [2] (setting [3]), the Knee/Blood ratio amounted to 2.39 ± 0.09, the Knee/Liver ratio was determined as 0.17 ± 0.09, the Shoulder/Blood ratio amounted to 1.29 ± 0.30 and the Shoulder/Liver ratio is 0.09 ± 0.30. Also, in data set [2] (setting [4]), the “Bladder activity, post-mortem biodistribution” value is 1.22 ± 0.04 % ID/g; the “Blood activity, post-mortem biodistribution” value worked out at 3.82 ± 0.32 % ID/g; the “Brain activity, post-mortem biodistribution” value came to 0.10 ± 0.01 % ID/g; the “Heart activity, post-mortem biodistribution” value is reported as 2.87 ± 0.27 % ID/g. For the same compound, in data set [2] (setting [4]), the “Intestine activity, post-mortem biodistribution” value is 3.85 ± 0.49 % ID/g; the “Kidney activity, post-mortem biodistribution” value amounted to 9.04 ± 0.60 % ID/g; the “Knee activity, post-mortem biodistribution” value worked out at 9.13 ± 0.73 % ID/g; the “Liver activity, post-mortem biodistribution” value came to 54.39 ± 4.03 % ID/g. In data set [2] (setting [4]), the “Lung activity, post-mortem biodistribution” value was found to be 6.70 ± 0.85 % ID/g; the “Muscle activity, post-mortem biodistribution” value is given as 0.31 ± 0.01 % ID/g; the “Pancreas activity, post-mortem biodistribution” value was determined as 1.20 ± 0.20 % ID/g; the “Shoulder activity, post-mortem biodistribution” value worked out at 4.91 ± 1.43 % ID/g. In data set [2] (setting [4]), the “Spleen activity, post-mortem biodistribution” value is listed as 38.03 ± 4.69 % ID/g and the “Stomach activity, post-mortem biodistribution” value amounted to 1.70 ± 0.10 % ID/g. Also, the “uptake in liver and spleen” value in data set [2] (directly targeted, 6 h p.i.) was “strong uptake”.

As to `O=C(O)CN(CCNC(=O)CCOCCOCCOCCOCCOCCOCCOCCOCCNC(=O)CCCC(=O)Nc1ccc(-c2nncnn2)cc1)Cc1cccc(C(=O)O)n1` [Tz 4, 6-(38-((4-(1,2,4,5-tetrazin-3-yl)phenyl)amino)-2-(carboxymethyl)-6,34,38-trioxo-9,12,15,18,21,24,27,30-octaoxa-2,5,33-triazaoctatriacontyl)picolinic acid], the “bone accumulation, pretargeted vs. non-targeted group” value in data set [1] (image analysis of shoulder and knee at 0, 2 and 6 h p.i.) is given as “did not show statistically significant bone uptake at any time point compared to the saline control”.
